One data set has as its system HIV. Kind of data set: Killing of HIV and other pathogens by lubricant acidified with lactic acid. The note with it: vaginal lubricant including substantially racemic lactic acid, matched to vaginal acidity.
Data set [1] deals with herpes simplex virus (HSV-2). The note with it: after a single exposure; cited from earlier work.

As for `CC(O)C(=O)O` (racemic) [lactic acid], in the data set with HIV, the “killing of HIV and many other pathogens” value was “kills HIV and many other pathogens”.

For the molecule “polyethylene glycol [polyethylene glycol (PEG-8)]”, the “susceptibility to herpes simplex virus (HSV-2)” value in data set [1] is given as “markedly increased susceptibility”.

Source of the values: US20230129935A1, “SYSTEM, PRODUCT AND METHOD FOR MAINTAINING THE VAGINAL MICROBIOME” (VAGINAL BIOME SCIENCE, INC., priority 2021, published 2023).
